From ChEMBL document CHEMBL1201862, “PubChem BioAssay data set” (2004) come the findings set out here.

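Method: 48-hour compound exposure of cells in 96-well plates, five concentrations, linear interpolation of endpoints. Here, GI50 denotes the concentration required for 50% inhibition of growth.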 Calls of active or inactive are those of the source. Rule as the data show it: active = GI50 up to about 1.1 µM and inactive = higher.

Among the test systems are NCI-H460; BT-549; UACC-257; UACC-62; HCT-116; DU-145; OVCAR-5; EKVX; SK-MEL-5; SNB-19; U-251; SK-MEL-28; SF-268; OVCAR-8; SW-620; NCI/ADR-RES; SN12C; K562; SF-539; NCI-H522.
Holding throughout (assay): NCI tumour cell line growth inhibition, 48 h

Take `COc1cc(OC)cc(-c2nc(O)c3ccccc3n2)c1`: the GI50 in the assay on NCI-H460 is 28.3 µM (inactive); in the assay on BT-549, > 100 µM (inactive); in the assay on UACC-257 it was > 100 µM (inactive); in the assay on UACC-62 it was > 100 µM (inactive); in the assay on HCT-116, 42.5 µM (inactive); in the assay on DU-145, > 100 µM (inactive). The GI50 with OVCAR-5 is > 100 µM (inactive); in the assay on EKVX it was > 100 µM (inactive); in the assay with SK-MEL-5 it was > 100 µM (inactive); in the assay on SNB-19, 49 µM (inactive); in the assay on U-251 it was 39.3 µM (inactive); in the assay with SK-MEL-28, > 100 µM (inactive). Also, the GI50 was 63.2 µM (inactive) with SF-268; 24.6 µM (inactive) in the assay on OVCAR-8; > 100 µM (inactive) with SW-620; 40.7 µM (inactive) in the assay with NCI/ADR-RES; > 100 µM (inactive) with SN12C; > 100 µM (inactive) in the assay with K562.
In the case of `Cn1c2c(c3ccccc31)CC(=O)N1CCCCC1C21OCCO1` (stereo unspecified), the GI50 with NCI-H460, in the assay with BT-549, in the assay on UACC-257, with UACC-62, in the assay with HCT-116 and in the assay on DU-145 was > 100 µM (inactive) in each case. Also, the GI50 in the assay on OVCAR-5, with EKVX, in the assay on SK-MEL-5, in the assay on SNB-19, in the assay with U-251 and in the assay on SK-MEL-28 was > 100 µM (inactive) throughout. Also, the GI50 in the assay on SF-268, with OVCAR-8, in the assay with SW-620, in the assay with NCI/ADR-RES and in the assay on SN12C was > 100 µM (inactive) throughout.
Turning to `NC(Cc1ccc2nc3c4ccccc4c(=O)cc-3oc2c1)C(=O)O` (stereo unspecified), the GI50 in the assay on NCI-H460 is > 100 µM (inactive); with BT-549 it was > 100 µM (inactive); with UACC-257, 72.1 µM (inactive); with UACC-62 it was 32.7 µM (inactive); with HCT-116 it was > 100 µM (inactive); in the assay with DU-145, > 100 µM (inactive). Besides, the GI50 in the assay with OVCAR-5 is > 100 µM (inactive); in the assay on EKVX it was > 100 µM (inactive); with SK-MEL-5, 18 µM (inactive); in the assay on SNB-19, > 100 µM (inactive); in the assay on SF-539 it was > 100 µM (inactive); with U-251, > 100 µM (inactive). Moreover, the GI50 in the assay with SK-MEL-28, in the assay on SF-268, in the assay with SW-620, with NCI/ADR-RES, in the assay with SN12C and in the assay on K562 was > 100 µM (inactive) in each case.
As to `Cc1ccc(NCCN(C)C)c2c(=O)c3cc(O)ccc3sc12`, the GI50 was 0.0516 µM (active) in the assay on NCI-H460; 4.33 µM (inactive) with NCI-H522; 5.4 µM (inactive) with BT-549; 8 µM (inactive) in the assay with UACC-257; 2.95 µM (inactive) with UACC-62; 1.96 µM (inactive) in the assay with HCT-116. The GI50 in the assay with DU-145 was 2.18 µM (inactive); with OVCAR-5, 15.3 µM (inactive); with EKVX it was 12.4 µM (inactive); in the assay on SK-MEL-5 it was 2.86 µM (inactive); in the assay with SNB-19 it was 2.64 µM (inactive); in the assay on SF-539 it was 3.55 µM (inactive). The GI50 with U-251 was 1.63 µM (inactive); with SK-MEL-28 it was 6.01 µM (inactive); with SF-268, 4.35 µM (inactive); in the assay on OVCAR-8, 2.44 µM (inactive); in the assay on SW-620, 1.19 µM (inactive); with SN12C it was 1.94 µM (inactive). In addition, the GI50 in the assay with K562 was 1.5 µM (inactive).
Take `COC(=O)C(=O)C(C(=O)C(=O)Nc1ccccc1C(=O)OC)c1nc2ccc(C(=O)c3ccccc3)cc2nc1O` (stereo unspecified): the GI50 in the assay with NCI-H460 was 51.3 µM (inactive); in the assay with NCI-H522 it was 24.1 µM (inactive); in the assay with BT-549, > 100 µM (inactive); with UACC-257, > 100 µM (inactive); with UACC-62 it was > 100 µM (inactive); with HCT-116, > 100 µM (inactive). In addition, the GI50 in the assay with OVCAR-5 was > 100 µM (inactive); with EKVX, 80.4 µM (inactive); with SK-MEL-5, 53.7 µM (inactive); with SF-539 it was > 100 µM (inactive); in the assay with U-251 it was > 100 µM (inactive); in the assay on SK-MEL-28 it was 90.2 µM (inactive). Moreover, the GI50 in the assay with SF-268 is 56.9 µM (inactive); in the assay with OVCAR-8, 39.4 µM (inactive); in the assay with SW-620, 50 µM (inactive); with NCI/ADR-RES it was 18.8 µM (inactive); in the assay with SN12C, 64.7 µM (inactive); in the assay on K562, 36.1 µM (inactive).
Consider `CC(=O)c1cccc(NC(=O)C(=O)NNc2nnc(S)n2N)c1`, for which the GI50 in the assay with NCI-H460 is 4.17 µM (inactive); with NCI-H522, 6.37 µM (inactive); in the assay with BT-549, 2.34 µM (inactive); with UACC-257 it was 2.75 µM (inactive); in the assay on UACC-62, 1.89 µM (inactive); in the assay on HCT-116, 4 µM (inactive). The GI50 with DU-145 was 6.58 µM (inactive); in the assay with OVCAR-5 it was 17.3 µM (inactive); in the assay with EKVX it was 14.2 µM (inactive); in the assay with SK-MEL-5, 1.21 µM (inactive); in the assay with SNB-19 it was 6.25 µM (inactive); in the assay with SF-539, 6.18 µM (inactive). Further, the GI50 in the assay on U-251 is 3.57 µM (inactive); in the assay on SK-MEL-28, 6.89 µM (inactive); with SF-268 it was 9.62 µM (inactive); in the assay with OVCAR-8, 5.46 µM (inactive); in the assay on SW-620, 7.73 µM (inactive); with SN12C, 7.4 µM (inactive). Besides, the GI50 in the assay with K562 is 4.85 µM (inactive).
In the case of `O=c1cnc2cc3ccccc3cc2[nH]1`, the GI50 with NCI-H460, in the assay with NCI-H522, with BT-549, with UACC-257, in the assay on HCT-116 and in the assay with OVCAR-5 was > 100 µM (inactive) each time. For the same molecule, the GI50 was 1.57 µM (inactive) with EKVX; > 100 µM (inactive) in the assay with SK-MEL-5; 71.6 µM (inactive) with SNB-19; > 100 µM (inactive) in the assay with U-251; > 100 µM (inactive) in the assay on SK-MEL-28; > 100 µM (inactive) with SF-268. For the same molecule, the GI50 with OVCAR-8, in the assay on SW-620, in the assay with NCI/ADR-RES, in the assay with SN12C and with K562 was > 100 µM (inactive) throughout.
As to `COc1ccc(CC2Cc3ccccc3CC(=O)N2)cc1OC` (stereo unspecified), the GI50 in the assay with NCI-H460 was 42.8 µM (inactive); in the assay with BT-549, 37.4 µM (inactive); in the assay on UACC-257, 47.4 µM (inactive); with UACC-62 it was 48.2 µM (inactive); in the assay on HCT-116, 98.9 µM (inactive); with DU-145, > 100 µM (inactive). Moreover, the GI50 in the assay with OVCAR-5 was > 100 µM (inactive); in the assay on EKVX, 89.7 µM (inactive); in the assay with SK-MEL-5, 14.3 µM (inactive); in the assay on SNB-19 it was > 100 µM (inactive); in the assay with SF-539, > 100 µM (inactive); with U-251, > 100 µM (inactive). The GI50 in the assay on SK-MEL-28 was > 100 µM (inactive); in the assay with OVCAR-8, 75 µM (inactive); in the assay on SW-620 it was > 100 µM (inactive); with NCI/ADR-RES, 27.5 µM (inactive); in the assay with SN12C, > 100 µM (inactive); with K562 it was 44.9 µM (inactive).
Take `CC(C)(C)OC/C=C(\Br)CO`: the GI50 with NCI-H460, with BT-549, with UACC-257, with UACC-62, with HCT-116 and in the assay with DU-145 was > 100 µM (inactive) throughout. For the same molecule, the GI50 in the assay with OVCAR-5, in the assay with EKVX, in the assay with SNB-19, in the assay with SF-539, in the assay with U-251 and with SK-MEL-28 was > 100 µM (inactive) in each case. In addition, the GI50 with SF-268, with OVCAR-8, with SW-620, in the assay on NCI/ADR-RES, in the assay with SN12C and with K562 was > 100 µM (inactive) each time.
For the molecule `CCOC(=O)c1cc(NC(=O)N(CCC#N)CCN(C(=O)N[C@@H](Cc2ccccc2)C(=O)N[C@@H](CC(C)C)C(=O)NC)c2ccccc2)ccc1OC`, the GI50 was 30.9 µM (inactive) with BT-549; 24 µM (inactive) with UACC-257; 4.76 µM (inactive) in the assay on UACC-62; 42.4 µM (inactive) in the assay on HCT-116; 44.6 µM (inactive) with DU-145; > 100 µM (inactive) in the assay on OVCAR-5. The GI50 in the assay on EKVX was 63.1 µM (inactive); with SK-MEL-5, 42.3 µM (inactive); with SNB-19, 79.4 µM (inactive); in the assay on SF-539 it was 31.3 µM (inactive); in the assay with U-251 it was > 10 µM (inactive); in the assay on SK-MEL-28 it was 28.9 µM (inactive). Besides, the GI50 in the assay on SF-268 is 48.5 µM (inactive); in the assay with OVCAR-8, 84.9 µM (inactive); in the assay with SW-620 it was > 10 µM (inactive); in the assay on NCI/ADR-RES it was > 100 µM (inactive); in the assay on SN12C, 33.7 µM (inactive).
Consider `OB1OCc2ccccc21` [BENZOXABOROLE], for which the GI50 in the assay on NCI-H460 is 34.7 µM (inactive); in the assay on BT-549, > 100 µM (inactive); in the assay on UACC-257, 28.6 µM (inactive); with UACC-62 it was 35.9 µM (inactive); with HCT-116, 44.4 µM (inactive); with DU-145, > 100 µM (inactive). Further, the GI50 is 46.9 µM (inactive) with SK-MEL-5; 60.8 µM (inactive) with SNB-19; 25.1 µM (inactive) with SF-539; 62.7 µM (inactive) in the assay on U-251; 21.6 µM (inactive) in the assay on SK-MEL-28; 42.2 µM (inactive) in the assay on SF-268. The GI50 with OVCAR-8 was 31.1 µM (inactive); in the assay with SW-620, 30.7 µM (inactive); with NCI/ADR-RES, 22.3 µM (inactive); with SN12C it was 39.7 µM (inactive); in the assay with K562, 67.8 µM (inactive).
